Reference: patent US20110039762A1, “TARGETED ANTIMICROBIAL MOIETIES” (C3 JIAN, INC., priority 2009, published 2011)
“Also recorded” adds a separate entry of the source.

The substances below were run on microorganisms (e.g., bacteria, yeasts, fungi) (assay: Targeting peptide binding to target microorganisms (Table 3)). Conditions: microorganism the targeting peptide binds; binding in aqueous buffers varied by peptide solubility, preferably 1x PBS.
For “1T-193 (LMIFDKHANLKYKYGNRSFGVEAIM; Peptide with targeting and/or antimicrobial activity) [Peptide 1T-193]”, the “Target(s)” value was “S. sanguinis”. In the case of “1T-195 (AASGFTYCASNGVWHPY; Peptide with targeting and/or antimicrobial activity) [Peptide 1T-195]”, the “Target(s)” value is reported as “S. mutans”. In the case of “1T-196 (KPEKEKLDTNTLMKVVNKALSLFDRLLIKFGA; Peptide with targeting and/or antimicrobial activity) [Peptide 1T-196]”, the “Target(s)” value is reported as “F. nucleatum; also recorded: S. sanguinis”. In the case of “1T-198 (MPVSKKRYMLSSAYATALGICYGQVATDEKESEITAIPDLLDYLSVEEYLL; Peptide with targeting and/or antimicrobial activity) [Peptide 1T-198]”, the “Target(s)” value is reported as “P. gingivalis; also recorded: S. epidermidis; also recorded: S. gordonii; also recorded: S. mitis; also recorded: S. mutans; also recorded: S. oralis; also recorded: S. sanguinis”. “1T-199 (RAGRIKKLSQKEAEPFEN; Peptide with targeting and/or antimicrobial activity) [Peptide 1T-199]” was tested, and the “Target(s)” value was “S. sanguinis”. In the case of “1T-201 (KRKHENVIVAEEMRVIKN; Peptide with targeting and/or antimicrobial activity) [Peptide 1T-201]”, the “Target(s)” value is reported as “S. sanguinis”. With “1T-207 (SPLEKYGTGSMTALTFLLGCCLLVLSKKSR; Peptide with targeting and/or antimicrobial activity) [Peptide 1T-207]” the “Target(s)” value was “F. nucleatum; also recorded: S. sanguinis”. “1T-215 (VCFKDISVFLSPFRGQEVLFCGKAKHSLIYVIGT; Peptide with targeting and/or antimicrobial activity) [Peptide 1T-215]” was tested, and the “Target(s)” value was “S. sanguinis”. In the case of “1T-216 (FFLNVIAIRIPHF; Peptide with targeting and/or antimicrobial activity) [Peptide 1T-216]”, the “Target(s)” value is reported as “S. sanguinis”. With “1T-217 (MLSNVLSRSVVSPNVDIPNSMVILSPLLISISNYH; Peptide with targeting and/or antimicrobial activity) [Peptide 1T-217]” the “Target(s)” value was “F. nucleatum; also recorded: S. sanguinis”. “1T-218 (KLIFAALGLVFLLIGLRDSRSK; Peptide with targeting and/or antimicrobial activity) [Peptide 1T-218]” was tested, and the “Target(s)” value was “F. nucleatum; also recorded: S. sanguinis”. In the case of “1T-219 (RNINVSATFITEKSLV; Peptide with targeting and/or antimicrobial activity) [Peptide 1T-219]”, the “Target(s)” value is reported as “S. sanguinis”. In the case of “1T-222 (RIEASLISAIMFSMFNAIVKFLQK; Peptide with targeting and/or antimicrobial activity) [Peptide 1T-222]”, the “Target(s)” value is reported as “F. nucleatum; also recorded: S. sanguinis”. In the case of “1T-237 (EDPVPNHFTLRRNKKEKPSKS; Peptide with targeting and/or antimicrobial activity) [Peptide 1T-237]”, the “Target(s)” value is reported as “S. sanguinis”. In the case of “1T-239 (ADDLLNKRLTDLIMENAETVKTIDLDNSD; Peptide with targeting and/or antimicrobial activity) [Peptide 1T-239]”, the “Target(s)” value is reported as “A. naeslundii; also recorded: S. gordonii; also recorded: S. mitis; also recorded: S. mutans; also recorded: S. oralis; also recorded: S. sanguinis”. For “1T-242 (KQVQNTTLIICGTVLLGILFKSYLKSQKSV; Peptide with targeting and/or antimicrobial activity) [Peptide 1T-242]”, the “Target(s)” value was “F. nucleatum; also recorded: S. sanguinis”. With “1T-248 (IGGALNSCG; Peptide with targeting and/or antimicrobial activity) [Peptide 1T-248]” the “Target(s)” value was “S. sanguinis”. With “1T-249 (VFSVLKHTTWPTRKQSWHDFISILEYSAFFALVIFIFDKLLTLGLAELLKRF; Peptide with targeting and/or antimicrobial activity) [Peptide 1T-249]” the “Target(s)” value was “F. nucleatum; also recorded: S. sanguinis”. With “1T-250 (LVQGDTILIENHVGTPVKDDGKDCLIIREADVLAVVND; Peptide with targeting and/or antimicrobial activity) [Peptide 1T-250]” the “Target(s)” value was “S. mitis; also recorded: S. mutans; also recorded: S. oralis”. In the case of “1T-252 (MKKNLKRFYALVLGFIIGCLFVSILIFIGY; Peptide with targeting and/or antimicrobial activity) [Peptide 1T-252]”, the “Target(s)” value is reported as “F. nucleatum; also recorded: S. sanguinis”. “1T-256 (KGKSLMPLLKQINQWGKLYL; Peptide with targeting and/or antimicrobial activity) [Peptide 1T-256]” was tested, and the “Target(s)” value was “S. sanguinis”. In the case of “1T-258 (TINIDDKVLDYLKKINSKAITIDLIGCAS; Peptide with targeting and/or antimicrobial activity) [Peptide 1T-258]”, the “Target(s)” value is reported as “A. naeslundii; also recorded: F. nucleatum; also recorded: P. gingivalis; also recorded: T. denticola; also recorded: S. mitis; also recorded: S. mutans; also recorded: S. oralis”. In the case of “1T-259 (EKLKKILLKLAVCGKAWYTL; Peptide with targeting and/or antimicrobial activity) [Peptide 1T-259]”, the “Target(s)” value is reported as “F. nucleatum; also recorded: P. gingivalis; also recorded: T. denticola; also recorded: S. mitis; also recorded: S. mutans; also recorded: S. oralis; also recorded: S. sanguinis”. In the case of “1T-260 (NILYFIHDENQWEPQKAEIFRGSIKHCAWLSS; Peptide with targeting and/or antimicrobial activity) [Peptide 1T-260]”, the “Target(s)” value is reported as “A. naeslundii; also recorded: P. gingivalis; also recorded: S. epidermidis; also recorded: S. gordonii; also recorded: S. mitis; also recorded: S. mutans; also recorded: S. oralis; also recorded: S. sanguinis”. “1T-261 (SFEKNKIENNLKIAQAYIYIKPKPRICQA; Peptide with targeting and/or antimicrobial activity) [Peptide 1T-261]” was tested, and the “Target(s)” value was “F. nucleatum; also recorded: S. mutans; also recorded: S. oralis; also recorded: S. sanguinis”. “1T-264 (LEGKFYMAEDFDKTPECFKDYV; Peptide with targeting and/or antimicrobial activity) [Peptide 1T-264]” was tested, and the “Target(s)” value was “S. sanguinis”. For “1T-266 (RAGTWLVVDEIR; Peptide with targeting and/or antimicrobial activity) [Peptide 1T-266]”, the “Target(s)” value was “S. sanguinis”. For “1T-267 (RIKEERKNRSYKFFIWRLFDEKTGFI; Peptide with targeting and/or antimicrobial activity) [Peptide 1T-267]”, the “Target(s)” value was “A. naeslundii; also recorded: F. nucleatum; also recorded: P. gingivalis; also recorded: T. denticola; also recorded: S. mitis; also recorded: S. mutans; also recorded: S. oralis; also recorded: S. sanguinis”. “1T-268 (PITPKKEKCGLGTYAPKNPVFSKSRV; Peptide with targeting and/or antimicrobial activity) [Peptide 1T-268]” was tested, and the “Target(s)” value was “F. nucleatum; also recorded: S. mutans; also recorded: S. oralis; also recorded: S. sanguinis”. “1T-269 (PLYVAAVEKINTAKKH; Peptide with targeting and/or antimicrobial activity) [Peptide 1T-269]” was tested, and the “Target(s)” value was “F. nucleatum; also recorded: S. mutans; also recorded: S. oralis; also recorded: S. sanguinis”. In the case of “1T-270 (VHEFDIQKILQNR; Peptide with targeting and/or antimicrobial activity) [Peptide 1T-270]”, the “Target(s)” value is reported as “F. nucleatum; also recorded: S. mutans; also recorded: S. oralis; also recorded: S. sanguinis”.
